Assay results as given in patent US11725036B2, “Modified lipidated relaxin B chain peptides and their therapeutic use” (Sanofi, priority 2018, dated 2023).
In brackets after ≈: the same amount, converted by molar mass. Read-outs that look alike come from different tables or passages of the source. Starred links: 1 amine or outer side, 2 acyl side, 3 side chain; linkers in the order of their positions; H or OH if unused. Non-standard residues stand in square brackets, D forms with d. Residues, ends and D or L forms follow the SMILES beside them. Groups on a side chain read outwards from the residue. *: point of attachment. X13 = CCCCCCCCCCCCCCCC(=O)N[C@@H](CCC(=O)N[C@@H](CCC(=O)N[C@@H](CCC(=O)N[C@@H](CCC(=O)NCCCOCCOCCOCCCNC(=O)CCC(=O)NCCCOCCOCCOCCCNC(=O)CCC(=O)NCCCOCCOCCOCCCN*)C(=O)O)C(=O)O)C(=O)O)C(=O)O; X10 = CCCCCCCCCCCCCC(=O)N[C@@H](CCC(=O)N[C@@H](CCC(=O)N[C@@H](CCC(=O)N[C@@H](CCC(=O)NCCCOCCOCCOCCCNC(=O)CCC(=O)NCCCOCCOCCOCCCNC(=O)CCC(=O)NCCCOCCOCCOCCCN*)C(=O)O)C(=O)O)C(=O)O)C(=O)O; X1 = CCCCCCCCCCCCCCCC(=O)N[C@@H](CCC(=O)N[C@@H](CCC(=O)N[C@@H](CCC(=O)NCCCOCCOCCOCCCNC(=O)CCC(=O)NCCCOCCOCCOCCCNC(=O)CCC(=O)NCCCOCCOCCOCCCN*)C(=O)O)C(=O)O)C(=O)O; X2 = CCCCCCCCCCCCCCCC(=O)N[C@@H](CCC(=O)N[C@@H](CCC(=O)N[C@@H](CCC(=O)NCCCOCCOCCOCCCNC(=O)CCC(=O)NCCCOCCOCCOCCCN*)C(=O)O)C(=O)O)C(=O)O; γGlu = O=C(O)[C@H](CCC(=O)[*:2])N[*:1]; Stearoyl = CCCCCCCCCCCCCCCCCC(=O)*; Suc = O=C(CCC(=O)[*:2])[*:1]; αMeK = C[C@](N)(CCCCN)C(=O)O; AEEA = NCCOCCOCC(=O)O; Aib = CC(C)(N)C(=O)O

Experiments:
[1] = target: T1, RXFP1 (Homo sapiens, UniProt Q9HBX9); assay: OVCAR5 cAMP assay (HTRF); type: cell-based; conditions: for EC50: OVCAR 5 cells expressing endogenous RXFP1, cAMP readout; for Emax: OVCAR 5 cells, maximal cAMP relative to H2-relaxin
T1 construct: OVCAR5 cells expressing endogenous RXFP1; endogenous in cells; host or cells: OVCAR5
T1 sequence (Q9HBX9 1-757): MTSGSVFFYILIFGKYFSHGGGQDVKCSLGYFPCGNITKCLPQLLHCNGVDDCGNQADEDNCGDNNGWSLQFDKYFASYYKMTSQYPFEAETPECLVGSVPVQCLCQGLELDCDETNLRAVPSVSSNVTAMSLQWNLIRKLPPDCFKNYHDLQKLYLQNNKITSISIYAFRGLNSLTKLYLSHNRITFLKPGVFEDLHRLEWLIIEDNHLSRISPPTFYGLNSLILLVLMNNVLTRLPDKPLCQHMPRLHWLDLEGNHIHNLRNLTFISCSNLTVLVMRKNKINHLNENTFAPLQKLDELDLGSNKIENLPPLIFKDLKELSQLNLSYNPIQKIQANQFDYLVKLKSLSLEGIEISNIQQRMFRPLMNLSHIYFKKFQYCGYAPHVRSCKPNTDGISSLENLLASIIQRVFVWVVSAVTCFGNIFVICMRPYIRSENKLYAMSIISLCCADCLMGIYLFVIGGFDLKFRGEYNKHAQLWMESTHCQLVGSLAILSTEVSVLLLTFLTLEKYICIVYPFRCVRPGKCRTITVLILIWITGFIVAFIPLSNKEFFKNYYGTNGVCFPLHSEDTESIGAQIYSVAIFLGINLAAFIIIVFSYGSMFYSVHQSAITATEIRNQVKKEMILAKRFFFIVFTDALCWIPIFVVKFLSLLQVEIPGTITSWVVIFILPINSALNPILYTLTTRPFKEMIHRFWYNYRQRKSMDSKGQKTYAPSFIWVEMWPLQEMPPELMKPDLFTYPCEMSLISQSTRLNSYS
Summary of the method: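 Endogenous RXFP1 in OVCAR5 cells, pretreated 40 min at 37° C with 1 mM IBMX, then exposed to increasing peptide concentrations in serum-free medium for 30 min at 37° C. cAMP read by HTRF; EC50 by variable-slope sigmoidal fit, Emax as % of H2-relaxin maximal cAMP in same run.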

[2] = Solubility testing in buffer; type: physicochemical; conditions: target solubility 10.0 mg/ml
Procedure: Prior to the testing of solubility of a peptide batch, its purity (HPLC-UV) was determined.
Acetate Buffer 50 mM pH4.5: 0.75 g C2H3C02Na,3H2O (Sigma S7545)+0.35 ml CH3CO2H 100% solution dissolved in Millipore water, adjusted to pH with diluted (1:1) CH3CO2H and diluted to 250 ml with Millipore water.
In a 4 ml Ependorph vial, an accurately weighed sample of compound was diluted in study media to obtain target concentration of 2, 6 or 10 mg/ml of pure compound. The sample vials were shacked (rock 'roll shaker) for ˜19 h. 300 μL aliquots were filtered through a Millipore “Solvinert” plate (0.45 μm-PTFE hydrophilic).
pH was measured with a micro electrode
Waters Acquity UPLC System with DAD detector
Column: Waters Peptide Column CSH C18 (130 Å; 1.7 μm; 50*2.1 mm)
Column temperature: 60° C.
Full loop (about 5 μL)—overfill factor 5
Weak et Strong wash: H2O/ACN (75/25; V/V); Seal wash: H2O/IsOH (95/5; V/V). Mobile phase:
Solvent A: 0.05% TFA in H2O; Solvent B: 0.035% TFA in CH3CN
Gradient: from 0 to 12 min B=2% to 60%, from 12 to 14 min B=60% to 100%. Column washing 100% B 1 min, column equilibration 2% B 2.5 min.
UV detector: wavelength: 220 nm.

[3] = acetate buffer 50 mM pH 4.5, read-out: Solubility Acetate buffer pH 4.5
[4] = phosphate buffer 50 mM pH 7.4, read-out: Solubility phosphate buffer pH 7.4

Structure (SMILES) | EC50 [1] | Emax [1] | solubility [2, 3] | solubility [2, 4]
CCCCCCCCCCCCCCCC(=O)N[C@@H](CCC(=O)N[C@@H](CCC(=O)N[C@@H](CCC(=O)NCCCOCCOCCOCCCNC(=O)CCC(=O)NCCCOCCOCCOCCCNC(=O)CCC(=O)NCCCC[C@H](NC(=O)CNC(=O)[C@H](CCC(=O)O)NC(=O)C(C)(C)NC(=O)C(C)(C)NC(=O)[C@@H](NC(=O)[C@H](CCCCNC(C)=O)NC(=O)[C@H](C)NC(=O)[C@H](CCCNC(=N)N)NC(=O)[C@@H](NC(=O)[C@H](CCCCN)NC(=O)[C@H](CCC(=O)O)NC(=O)[C@H](CCCNC(=N)N)NC(=O)CNC(=O)[C@H](CCC(=O)O)NC(=O)[C@H](CC(C)C)NC(C)=O)C(C)C)[C@@H](C)CC)C(=O)N[C@@H](CO)C(=O)N[C@H](C(=O)N[C@@H](Cc1ccccc1)C(=O)N[C@@H](CO)C(=O)N[C@H](CCCCN)C(=O)N[C@@H](CCCNC(=N)N)C(=O)N[C@@H](C)C(=O)N[C@@H](CCCCNC(C)=O)C(N)=O)[C@@H](C)O)C(=O)O)C(=O)O)C(=O)O [compound 16] (Ac-LEGREKVRAK(Ac)I[Aib][Aib]EGK([Suc-X2])STFS[dK]RAK(Ac)-NH2) | 6.8 nM | 88% | 6330 µg/mL (≈ 1560 µM) | 6720 µg/mL (≈ 1660 µM)
CCCCCCCCCCCCCCCCCC(=O)N[C@@H](CCC(=O)N[C@@H](CCC(=O)N[C@@H](CCC(=O)NCCOCCOCC(=O)NCCOCCOCC(=O)NCCOCCOCC(=O)NCCOCCOCC(=O)NCCCC[C@H](NC(=O)CNC(=O)[C@H](CCC(=O)O)NC(=O)C(C)(C)NC(=O)C(C)(C)NC(=O)[C@@H](NC(=O)[C@H](CCCCNC(C)=O)NC(=O)[C@H](C)NC(=O)[C@H](CCCNC(=N)N)NC(=O)[C@@H](NC(=O)[C@H](CCCCN)NC(=O)[C@H](CCC(=O)O)NC(=O)[C@H](CCCNC(=N)N)NC(=O)CNC(=O)[C@H](CCC(=O)O)NC(=O)[C@H](CC(C)C)NC(C)=O)C(C)C)[C@@H](C)CC)C(=O)N[C@@H](CO)C(=O)N[C@H](C(=O)N[C@@H](Cc1c[nH]c2ccccc12)C(=O)N[C@@H](CO)C(=O)NC(C)(C)C(=O)N[C@@H](CCCNC(=N)N)C(=O)N[C@@H](CCCCN)C(=O)N[C@@H](CCCCNC(C)=O)C(N)=O)[C@@H](C)O)C(=O)O)C(=O)O)C(=O)O [compound 21] (Ac-LEGREKVRAK(Ac)I[Aib][Aib]EGK([AEEA-AEEA-AEEA-AEEA-γGlu-γGlu-γGlu-Stearoyl])STWS[Aib]RKK(Ac)-NH2) | 0.65 nM | 93% | 6280 µg/mL (≈ 1530 µM) | 6590 µg/mL (≈ 1610 µM)
CCCCCCCCCCCCCCCC(=O)N[C@@H](CCC(=O)N[C@@H](CCC(=O)N[C@@H](CCC(=O)N[C@@H](CCC(=O)NCCCOCCOCCOCCCNC(=O)CCC(=O)NCCCOCCOCCOCCCNC(=O)CCC(=O)NCCCOCCOCCOCCCNC(=O)CCC(=O)NCCCC[C@H](NC(=O)CNC(=O)[C@H](CCC(=O)O)NC(=O)C(C)(C)NC(=O)C(C)(C)NC(=O)[C@@H](NC(=O)[C@H](CCCCNC(C)=O)NC(=O)[C@H](C)NC(=O)[C@H](CCCNC(=N)N)NC(=O)[C@@H](NC(=O)[C@H](CCCCN)NC(=O)[C@H](CCC(=O)O)NC(=O)[C@H](CCCNC(=N)N)NC(=O)CNC(=O)[C@H](CCC(=O)O)NC(=O)[C@H](CC(C)C)NC(C)=O)C(C)C)[C@@H](C)CC)C(=O)N[C@@H](CO)C(=O)N[C@H](C(=O)N[C@@H](Cc1c[nH]c2ccccc12)C(=O)N[C@@H](CO)C(=O)NC(C)(C)C(=O)N[C@@H](CCCNC(=N)N)C(=O)N[C@@H](CCCCN)C(=O)N[C@@H](CCCCNC(C)=O)C(N)=O)[C@@H](C)O)C(=O)O)C(=O)O)C(=O)O)C(=O)O [compound 62] (Ac-LEGREKVRAK(Ac)I[Aib][Aib]EGK([Suc-X13])STWS[Aib]RKK(Ac)-NH2) | 0.6 nM | 98% |  | 
CCCCCCCCCCCCCCCC(=O)N[C@@H](CCC(=O)N[C@@H](CCC(=O)N[C@@H](CCC(=O)NCCCOCCOCCOCCCNC(=O)CCC(=O)NCCCOCCOCCOCCCNC(=O)CCC(=O)NCCCOCCOCCOCCCNC(=O)CCC(=O)NCCCC[C@H](NC(=O)CNC(=O)[C@H](CCC(=O)O)NC(=O)C(C)(C)NC(=O)C(C)(C)NC(=O)[C@@H](NC(=O)[C@H](CCCCNC(C)=O)NC(=O)[C@H](C)NC(=O)[C@H](CCCNC(=N)N)NC(=O)[C@@H](NC(=O)[C@H](CCCCN)NC(=O)[C@H](CCC(=O)O)NC(=O)[C@H](CCCNC(=N)N)NC(=O)CNC(=O)[C@H](CCC(=O)O)NC(=O)[C@H](CC(C)C)NC(C)=O)C(C)C)[C@@H](C)CC)C(=O)N[C@@H](CO)C(=O)N[C@@H](CCC(N)=O)C(=O)N[C@@H](Cc1c[nH]c2ccccc12)C(=O)N[C@@H](CO)C(=O)NC(C)(C)C(=O)N[C@@H](CCCNC(=N)N)C(=O)N[C@@H](CCCCN)C(=O)N[C@@H](CCCCNC(C)=O)C(N)=O)C(=O)O)C(=O)O)C(=O)O [compound 63] (Ac-LEGREKVRAK(Ac)I[Aib][Aib]EGK([Suc-X1])SQWS[Aib]RKK(Ac)-NH2) | 1.45 nM | 97% |  | 
CCCCCCCCCCCCCCCC(=O)N[C@@H](CCC(=O)N[C@@H](CCC(=O)N[C@@H](CCC(=O)NCCCOCCOCCOCCCNC(=O)CCC(=O)NCCCOCCOCCOCCCNC(=O)CCC(=O)NCCCOCCOCCOCCCNC(=O)CCC(=O)NCCCC[C@H](NC(=O)CNC(=O)[C@H](CCC(=O)O)NC(=O)C(C)(C)NC(=O)C(C)(C)NC(=O)[C@@H](NC(=O)[C@H](CCCCNC(C)=O)NC(=O)[C@H](C)NC(=O)[C@H](CCCNC(=N)N)NC(=O)[C@@H](NC(=O)[C@H](CC(C)C)NC(=O)[C@H](CCC(=O)O)NC(=O)[C@H](CCCNC(=N)N)NC(=O)CNC(=O)[C@H](CCC(=O)O)NC(=O)[C@H](CC(C)C)NC(C)=O)C(C)C)[C@@H](C)CC)C(=O)N[C@@H](CO)C(=O)N[C@H](C(=O)N[C@@H](Cc1c[nH]c2ccccc12)C(=O)N[C@@H](CO)C(=O)NC(C)(C)C(=O)N[C@@H](CCCNC(=N)N)C(=O)N[C@@H](CCCNC(=N)N)C(=O)N[C@@H](CCCCNC(C)=O)C(N)=O)[C@@H](C)O)C(=O)O)C(=O)O)C(=O)O [compound 37] (Ac-LEGRELVRAK(Ac)I[Aib][Aib]EGK([Suc-X1])STWS[Aib]RRK(Ac)-NH2) | 5.6 nM | 98% |  | 
CCCCCCCCCCCCCC(=O)N[C@@H](CCC(=O)N[C@@H](CCC(=O)N[C@@H](CCC(=O)N[C@@H](CCC(=O)NCCCOCCOCCOCCCNC(=O)CCC(=O)NCCCOCCOCCOCCCNC(=O)CCC(=O)NCCCOCCOCCOCCCNC(=O)CCC(=O)NCCCC[C@H](NC(=O)CNC(=O)[C@H](CCC(=O)O)NC(=O)C(C)(C)NC(=O)C(C)(C)NC(=O)[C@@H](NC(=O)[C@H](CCCCNC(C)=O)NC(=O)[C@H](C)NC(=O)[C@H](CCCNC(=N)N)NC(=O)[C@@H](NC(=O)[C@H](CCCCN)NC(=O)[C@H](CCC(=O)O)NC(=O)[C@H](CCCNC(=N)N)NC(=O)CNC(=O)[C@H](CCC(=O)O)NC(=O)[C@H](CC(C)C)NC(C)=O)C(C)C)[C@@H](C)CC)C(=O)N[C@@H](CO)C(=O)N[C@H](C(=O)N[C@@H](Cc1ccccc1)C(=O)N[C@@H](CO)C(=O)N[C@@](C)(CCCCN)C(=O)N[C@@H](CCCNC(=N)N)C(=O)N[C@@H](C)C(=O)N[C@@H](CCCCN)C(N)=O)[C@@H](C)O)C(=O)O)C(=O)O)C(=O)O)C(=O)O [compound 97] (Ac-LEGREKVRAK(Ac)I[Aib][Aib]EGK([Suc-X10])STFS[αMeK]RAK-NH2) | 0.29 nM | 98% |  | 
